Assay [1] addresses T1, Fatty acid-binding protein, adipocyte (Homo sapiens, UniProt P15090). The assay is described as follows: Displacement of 1,8-ANS from His6-tagged FABP4 (unknown origin) expressed in Escherichia coli BL21(DE3) cells at 25 uM by fluorescence assay relative to control.
Target sequence in this assay (P15090 2-132 limits assumed): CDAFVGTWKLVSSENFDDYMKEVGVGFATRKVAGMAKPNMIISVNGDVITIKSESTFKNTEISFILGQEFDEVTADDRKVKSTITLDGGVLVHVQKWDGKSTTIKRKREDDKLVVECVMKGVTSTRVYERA
Assay [2] concerns the target T1, Fatty acid-binding protein, adipocyte. Briefly: Binding affinity to His6-tagged FABP4 (unknown origin) expressed in Escherichia coli BL21(DE3) cells assessed as change in melting temperature at 50 uM after 30 mins by SYPRO orange dye based thermal stability shift assay.
Target sequence in this assay (P15090 2-132 limits assumed): as above
Assay [3] has the same target. Briefly: Displacement of 1,8-ANS from His6-tagged FABP4 (unknown origin) expressed in Escherichia coli BL21(DE3) cells by fluorescence assay. As to conditions: read-out: Ki(app).
Target sequence in this assay (P15090 whole entry): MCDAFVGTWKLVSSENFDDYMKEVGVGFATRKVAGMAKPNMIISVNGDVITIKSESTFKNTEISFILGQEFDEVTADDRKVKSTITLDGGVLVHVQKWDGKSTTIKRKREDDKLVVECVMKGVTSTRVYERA
Assay [4] addresses T2, Fatty acid-binding protein, adipocyte (Mus musculus) (UniProt P04117).
T2 sequence (whole entry): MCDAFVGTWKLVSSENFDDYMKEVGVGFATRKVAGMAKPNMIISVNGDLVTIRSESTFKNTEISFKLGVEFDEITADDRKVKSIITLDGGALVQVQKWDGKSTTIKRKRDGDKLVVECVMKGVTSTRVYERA
Briefly: Inhibition of FABP4 in mouse RAW264.7 cells assessed as inhibition of LPS-induced TNFalpha production after 24 hrs by ELISA. In kind it is cell-based.

Assay [5] addresses T2, Fatty acid-binding protein, adipocyte (Mus musculus). The assay is described as follows: Inhibition of FABP4 in mouse RAW264.7 cells assessed as inhibition of LPS-induced TNFalpha expression after 24 hrs by qPCR method. The class given is cell-based. (In general: Quantitative PCR measures a nucleic acid by following its amplification.)
Assay [6] has the same target. The assay is described as follows: Inhibition of FABP4 in mouse RAW264.7 cells assessed as inhibition of LPS-induced IL-6 expression after 24 hrs by qPCR method. In kind it is cell-based.
The species entered for assay [7] is Homo sapiens. Briefly: Displacement of 1,8-ANS from His6-tagged FABP4 (unknown origin) R106A mutant expressed in Escherichia coli BL21(DE3) cells at 25 uM by fluorescence assay relative to control.
Assay [8] is filed under the species Homo sapiens. The assay is described as follows: Displacement of 1,8-ANS from His6-tagged FABP4 (unknown origin) R126A mutant expressed in Escherichia coli BL21(DE3) cells at 25 uM by fluorescence assay relative to control.

Each structure is given as a SMILES string.

Usually inhibition stands for the drop in the measured response relative to a control, in per cent. A word on the ΔTm: it is the shift of the melting midpoint relative to a reference. Consider `CN(CC(=O)O)c1ncc(-c2nnnn2-c2ccccc2)c(-c2ccccc2Cl)n1`, for which the inhibition in assay [1] was 0.5%. Moreover, the ΔTm in assay [2] is 0 °C.
For `Cc1nc(=O)c(-c2ccccc2)c(C)n1CCCCCC(=O)O` the same measures were -3.2% and 0 °C.
As for `O=C(O)C1CCCCC1C(=O)Nc1ccccc1-c1ccccc1` (stereo not given), in assay [1], the inhibition amounted to 27.7%. In assay [2], the shift in melting temperature (ΔTm) was found to be 3.9 °C.
Take `O=C(O)CC(Sc1nc2sc3c(c2c(=O)[nH]1)CCCC3)C(=O)O` (stereo not given): the ΔTm in assay [2] worked out at 0.1 °C.
Consider `CCCN1C2=C(C(=O)CC(C)(C)C2)C(c2cc(Cl)ccc2OCC(=O)O)C2=C1CC(C)(C)CC2=O`, for which the ΔTm in assay [2] was -0.2 °C.
For `O=C(O)c1ccccc1C(=O)N(Cc1ccccc1)Cc1ccccc1`, the inhibition in assay [1] stood at 4.9%. Further, the ΔTm in assay [2] turned out to be 1 °C.
The matching figures for `O=C(O)CC/C(=N/NC(=O)c1c[nH]c2ccccc12)c1ccccc1`: -0.8% and -0.8 °C.
As to `O=C(O)C1C2CC(Sc3ccccc3[N+](=O)[O-])C(Cl)C2c2cccc3c2N1CC1CC=CC31` (stereo not given), the inhibition in assay [1] turned out to be 60.2%. Moreover, the Ki in assay [3] is 3100 nM. Also, the shift in melting temperature (ΔTm) in assay [2] was found to be 3.5 °C.
As to `COc1ccc(S(=O)(=O)Nc2ccccc2C(=O)O)c2ccccc12`, in assay [1], the inhibition stood at 20.3%. The ΔTm in assay [2] was 1.2 °C.
For `Cc1ccc(S(=O)(=O)NC(CC(=O)O)c2ccccc2)c(C)c1` (stereo not given) the same measures were -0.3% and 0.2 °C.
As to `O=C(O)C1C2CC=CC2c2cc(Cl)cc3c2N1CC1CC=CC31` (stereo not given), the Ki in assay [3] stood at 690 nM. The ΔTm in assay [2] is 7.9 °C.
Consider `O=C(O)CCC(=O)Nc1ccccc1C(=O)N1CCCCCC1`, for which the inhibition in assay [1] is 3.4%. Also, the ΔTm in assay [2] was -0.1 °C.
As to `Cc1cc2c3c(c1)C1C=CCC1C(C(=O)O)N3CC1CC=CC21` (stereo not given), the inhibition result in assay [4], in assay [5] and in assay [6] was “Dose-dependent effect” each time. Also, in assay [3], the Ki amounted to 380 nM. Further, in assay [2], the shift in melting temperature (ΔTm) came out at 6.2 °C.
As for `O=c1cc(O)c2c(=O)n(N(c3ccccc3)c3ccccc3)c3c(c2o1)CCCC3`, the inhibition in assay [1] worked out at 0.9%. In addition, the thermal shift (ΔTm) in assay [2] worked out at 0.3 °C.
For `COc1ccccc1N1CCN(C(=O)c2ccccc2NC(=O)C2CCCCC2C(=O)O)CC1` (stereo not given) the same measures were -5% and 0.1 °C.
For `COc1cccc(-c2[nH]c3ccccc3c2C2c3ccccc3C(=O)N2CCC(=O)O)c1` (stereo not given) the same measures were 6.3% and 1.1 °C.
The matching figures for `CCCCCC(=O)N(CN1C(=O)c2ccccc2C1=O)c1cccc(C(=O)O)c1`: -1.9% and -0.2 °C.
For the molecule `COc1ccc(Cc2c(C)[nH]c3ccc(C(=O)O)cc23)cc1`, the ΔTm in assay [2] worked out at 1.2 °C.
Regarding `O=C(CSc1ncccc1C(=O)O)c1ccc(O)c(O)c1`, the inhibition in assay [1] was -0.2%. Further, the shift in melting temperature (ΔTm) in assay [2] was -0.6 °C.
Take `Cc1[nH]nc2c1C1(C(=O)N(C(C)C(=O)O)c3ccccc31)C(C#N)=C(N)O2` (stereo not given): the inhibition in assay [1] was 6%. For the same molecule, in assay [2], the ΔTm turned out to be 0.1 °C.
On to `Cc1cc(C)c2c3c1C1C=CCC1CN3C(C(=O)O)C1CC=CC21` (stereo not given), for which the Ki in assay [3] amounted to 610 nM. In assay [2], the ΔTm was 5.8 °C.
As for `O=C(O)CSc1cc(NS(=O)(=O)c2ccc(Cl)cc2)c2ccccc2c1O`, the inhibition in assay [1] stood at 70%. Moreover, the Ki in assay [3] stood at 2300 nM. In addition, the ΔTm in assay [2] was -2.8 °C.
For the molecule `COc1ccc(C2C(C(=O)c3ccc(C)cc3)=C(O)C(=O)N2CCCC(=O)O)cc1OC` (stereo not given), the inhibition in assay [1] turned out to be 16.6%. Further, the thermal shift (ΔTm) in assay [2] came to 1 °C.
Consider `COc1ccc(-c2ccc(C#N)c(SCC(=O)NCC(=O)O)n2)cc1`, for which the ΔTm in assay [2] is -0.1 °C.
Consider `CCc1c(-c2ccccc2)c(-c2ccccc2)nn1-c1ccccc1-c1cccc(OCC(=O)O)c1`, for which the inhibition entry in assay [4], in assay [5] and in assay [6] was “Dose-dependent effect” in each case. The thermal shift (ΔTm) in assay [2] was 10.6 °C.
As for `COc1ccc(CN(C(=O)COc2cc(C)ccc2C(C)C)c2ccccc2C(=O)O)cc1`, the inhibition in assay [1] turned out to be 18.5%. Besides, the ΔTm in assay [2] stood at 0.1 °C.
Regarding `CCCCCCCC/C=C\CCCCCCCC(=O)O`, the figures for the inhibition (in the assay listed under Homo sapiens [7]; in the assay listed under Homo sapiens [8]; in assay [1]) were 69.4%, 48.8% and 82.1%, respectively. In addition, in assay [2], the ΔTm is 3.3 °C.
Turning to `O=C(O)CCSc1nc2ccccc2n1Cc1ccccc1`, in assay [1], the inhibition was determined as 27.9%. The ΔTm in assay [2] is 2.8 °C.
For `Cc1ccc(C(=O)/C(=C\Nc2cc(Cl)ccc2C(=O)O)c2nnnn2-c2ccc(C)cc2)cc1` the same measures were -2.5% and -2.6 °C.
The matching figures for `CCCCCCCn1c(SCC(=O)O)nc2c1c(=O)[nH]c(=O)n2C`: 13% and 2 °C.
In the case of `O=C(Nc1cc(Cl)ccc1Cl)/C(=N\Nc1ccccc1C(=O)O)C(=O)c1ccccc1`, in assay [1], the inhibition was found to be 39.5%. Further, in assay [3], the Ki is 10300 nM. The shift in melting temperature (ΔTm) in assay [2] was 0.3 °C.
As to `CCOC(=O)c1cnc2c(ccc3ccccc32)c1Nc1cccc(C(=O)O)c1`, in assay [1], the inhibition worked out at 18.2%. Moreover, the shift in melting temperature (ΔTm) in assay [2] came out at 0.2 °C.
The matching figures for `O=C(O)c1ccc(S(=O)(=O)Nc2ccc(O)c(Sc3nc4ccccc4s3)c2)cc1`: 7.2% and 0.1 °C.
Turning to `O=C(O)COc1ccc(Br)cc1/C=C1\S/C(=N\c2ccc(Cl)cc2)NC1=O`, the shift in melting temperature (ΔTm) in assay [2] is -0.6 °C.
As for `O=C(O)C(Cc1ccc(O)cc1)N1C(=O)c2c(Cl)c(Cl)c(Cl)c(Cl)c2C1=O` (stereo not given), the inhibition in assay [1] is 6%. Besides, the ΔTm in assay [2] is 0.5 °C.
`CN1C(=O)/C(=N/c2cccc(C(=O)O)c2)S/C1=C\c1cccs1`: the inhibition in assay [1] turned out to be 25.8%. Moreover, the ΔTm in assay [2] is -0.3 °C.
For `Cc1oc2ccc(NS(=O)(=O)c3ccccc3)cc2c1C(=O)O` the same measures were 9.5% and 0.2 °C.
For `C=C1C(N(CCc2ccc(OC)cc2)C(=O)CCC(=O)O)CC(=O)N1c1ccccc1` (stereo not given) the same measures were 1% and -0.1 °C.
As for `O=C(O)C1C2CC=CC2c2c3c(cc4ccccc24)C2C=CCC2CN31` (stereo not given), in assay [2], the shift in melting temperature (ΔTm) came out at 7.5 °C.
The same measure, in the same setting: to `COc1ccccc1-c1cc(C(F)(F)F)nc(S(=O)(=O)CCCC(=O)O)n1` belongs -9.1 °C; to `CCCCC/C=C\C/C=C\CCCCCCCC(=O)O`, 1.1 °C.
For the molecule `O=C(O)c1cccc2c1NC(c1ccccc1[N+](=O)[O-])C1CC(Sc3ccccc3[N+](=O)[O-])C(Cl)C21` (stereo not given), the inhibition in assay [1] amounted to 41.5%. Moreover, the Ki in assay [3] amounted to 5400 nM. Besides, the ΔTm in assay [2] was -0.2 °C.
Consider `Cc1ccc(C)c(NC(=O)C2CCC(C)(C(=O)O)C2(C)C)c1` (stereo not given), for which, in assay [1], the inhibition stood at 0.5%. Also, in assay [2], the ΔTm was 0.1 °C.
On to `CC(Sc1nc(-c2ccccc2)c(-c2ccccc2)[nH]1)C(=O)O` (stereo not given), for which, in assay [2], the ΔTm was found to be 3.1 °C.
Consider `O=C(O)CCC(=O)Nc1sc2c(c1C(=O)Nc1cccc3ccccc13)CCCCC2`, for which, in assay [1], the inhibition came to 0.4%. Moreover, in assay [2], the thermal shift (ΔTm) came to 0.2 °C.
Turning to `Cc1cc(=O)n2c3c(cc(S(=O)(=O)NCc4ccc(C(=O)O)cc4)cc13)CC2`, the thermal shift (ΔTm) in assay [2] stood at 0.8 °C.
On to `Cc1ccc(-n2c(SCC(=O)Nc3c(C)cccc3C)nc(O)cc2=O)cc1`, for which the inhibition in assay [1] was -3%. Besides, in assay [2], the ΔTm came to 0 °C.
Take `O=C(O)c1cccc(-c2ccc(CNC(Cc3c[nH]c4ccccc34)C(=O)O)o2)c1` (stereo not given): the shift in melting temperature (ΔTm) in assay [2] is -2.4 °C.
For `Cc1ccc(C(C[N+](=O)[O-])c2c(-c3ccccc3C)n[nH]c2O)cc1` (stereo not given), the inhibition in assay [1] came out at 5.8%. Also, the thermal shift (ΔTm) in assay [2] was -3.7 °C.
Turning to `Cc1ccc(/N=C2/NC(=O)/C(=C/c3cccn3-c3cccc(C(=O)O)c3)S2)cc1C`, in assay [1], the inhibition stood at 36.8%. In addition, the Ki in assay [3] is 3600 nM. The ΔTm in assay [2] was -9 °C.
With `CC(=O)NC(Cc1ccc(O)cc1)C(=O)O` (stereo not given), the inhibition in assay [1] was -3.6%. Also, the ΔTm in assay [2] is -0.1 °C.
`Cc1oc2c(cc(NS(=O)(=O)c3ccc(Cl)cc3)c3ccccc32)c1C(=O)O`: the inhibition in assay [1] is 30.2%. For the same molecule, in assay [2], the thermal shift (ΔTm) is 2.8 °C.
Regarding `CCCOc1cc(S(=O)(=O)Nc2ccc(C(=O)O)cc2)ccc1Cl`, the inhibition in assay [1] was found to be 31.4%. Further, in assay [3], the Ki worked out at 4300 nM. The shift in melting temperature (ΔTm) in assay [2] is 0.1 °C.
As to `CCc1ccccc1NC(=O)C(OC(=O)c1ccccc1)C(OC(=O)c1ccccc1)C(=O)O` (stereo not given), the inhibition in assay [1] came out at 2.1%. The ΔTm in assay [2] was determined as 0.5 °C.
On to `CCOc1cc(/C=C2/SC(=S)N(CCC(=O)O)C2=O)ccc1O`, for which, in assay [1], the inhibition was determined as 63.2%. In assay [3], the Ki is 2500 nM. For the same molecule, the ΔTm in assay [2] is -1.8 °C.
In the case of `Cc1ccc(C(=O)C2=C(O)C(=O)N(CCCC(=O)O)C2c2ccccc2F)cc1` (stereo not given), the inhibition in assay [1] came to 17.1%. In addition, in assay [2], the ΔTm is 0 °C.

These data come from ChEMBL document CHEMBL3826919, “The discovery of novel and selective fatty acid binding protein 4 inhibitors by virtual screening and biological evaluation” (Bioorg Med Chem, 2016).
